The values that follow are results of earlier work, collected in patent US20170273596A1, “METHOD FOR MONITORING SWALLOWING” (NESTEC S.A., priority 2014, published 2017).

The conditions of data set [1]: database Episuite 4.1.
For data set [2] the following is noted: database Episuite 4.1. The source holds these as a separate data set.

Consider `C=C(C)[C@H]1CC=C(C)CC1` [Limonene], for which the “Lipophilicity: Oil/Water partition coefficient log Kow [w/v]” value in data set [1] is given as 4.38. Besides, the “Volatility: Air/water partition coefficient log K [w/v]” value in data set [2] was 0.12.

Regarding `CC(=O)C(C)=O` [2,3-Butanedione], in data set [1], the “Lipophilicity: Oil/Water partition coefficient log Kow [w/v]” value is recorded as −1.34. Also, the “Volatility: Air/water partition coefficient log K [w/v]” value in data set [2] is reported as −5.09.

`CS` [Methanethiol]: in data set [1], the “Lipophilicity: Oil/Water partition coefficient log Kow [w/v]” value was 0.78. Further, the “Volatility: Air/water partition coefficient log K [w/v]” value in data set [2] is listed as −0.97.

Take `CCCC(=O)OCC` [Ethylbutyrate]: in data set [1], the “Lipophilicity: Oil/Water partition coefficient log Kow [w/v]” value was 1.85. Also, in data set [2], the “Volatility: Air/water partition coefficient log K [w/v]” value was −1.79.

With `CCC(=O)C(C)=O` [2,3-Pentanedione], the “Lipophilicity: Oil/Water partition coefficient log Kow [w/v]” value in data set [1] is given as −0.85. In data set [2], the “Volatility: Air/water partition coefficient log K [w/v]” value is recorded as −4.97.

On to `CSC` [Dimethylsulfide], for which the “Lipophilicity: Oil/Water partition coefficient log Kow [w/v]” value in data set [1] is listed as 0.92. In addition, the “Volatility: Air/water partition coefficient log K [w/v]” value in data set [2] is given as −1.49.

Take `CC=O` [Acetaldehyde]: the “Lipophilicity: Oil/Water partition coefficient log Kow [w/v]” value in data set [1] is on record as −0.17. In data set [2], the “Volatility: Air/water partition coefficient log K [w/v]” value is given as −2.56.

For `CC(C)CC=O` [3-Methylbutanal], in data set [1], the “Lipophilicity: Oil/Water partition coefficient log Kow [w/v]” value is given as 1.23. Further, in data set [2], the “Volatility: Air/water partition coefficient log K [w/v]” value is recorded as −2.19.

Regarding `CCC(C)C=O` (stereo not drawn) [2-Methylbutanal], the “Lipophilicity: Oil/Water partition coefficient log Kow [w/v]” value in data set [1] is on record as 1.23. Moreover, the “Volatility: Air/water partition coefficient log K [w/v]” value in data set [2] is given as −2.20.

With 2-Methylpropanal, in data set [2], the “Volatility: Air/water partition coefficient log K [w/v]” value is recorded as −2.31.

With `COc1cc(C=O)ccc1O` [Vanillin], in data set [1], the “Lipophilicity: Oil/Water partition coefficient log Kow [w/v]” value was 1.05. Moreover, in data set [2], the “Volatility: Air/water partition coefficient log K [w/v]” value is on record as −8.47.
